Patent US11667668B2, “Compositions and methods for treating CNS disorders” (Sage Therapeutics, Inc., priority 2017, dated 2023)

Target: rat brain cortical membranes ([35S]-TBPS binding; GABAA receptor)
Test: Steroid inhibition of [35S]-TBPS binding
Settings: 3 nM [35S]-TBPS, in the presence of 5 mM GABA, 90 min at room temp
Description: [35S]-t-Butylbicyclophosphorothionate (TBPS) binding assays using rat brain cortical membranes in the presence of 5 mM GABA has been described (Gee et al, J. Pharmacol. Exp. Ther. 1987, 241, 346-353; Hawkinson et al, Mol. Pharmacol. 1994, 46, 977-985; Lewin, A. H et al., Mol. Pharmacol. 1989, 35, 189-194).
Briefly, cortices are rapidly removed following decapitation of carbon dioxide-anesthetized Sprague-Dawley rats (200-250 g). The cortices are homogenized in 10 volumes of ice-cold 0.32 M sucrose using a glass/teflon homogenizer and centrifuged at 1500×g for 10 min at 4° C. The resultant supernatants are centrifuged at 10,000×g for 20 min at 4° C. to obtain the P2 pellets. The P2 pellets are resuspended in 200 mM NaCl/50 mM Na—K phosphate pH 7.4 buffer and centrifuged at 10,000×g for 10 min at 4° C. This washing procedure is repeated twice and the pellets are resuspended in 10 volumes of buffer. Aliquots ([…]) of the membrane suspensions are incubated with 3 nM [35S]-TBPS and 5 mL aliquots of test drug dissolved in dimethyl sulfoxide (DMSO) (final 0.5%) in the presence of 5 mM GABA. The incubation is brought to a final volume of 1.0 mL with buffer. Nonspecific binding is determined in the presence of […] and ranged from 15 to 25%. […] Filter bound radioactivity is measured by liquid scintillation spectrometry. […]

| Structure (SMILES) | IC50 |
| --- | --- |
| [2H]C([2H])([2H])[C@@]1(O)CC[C@H]2[C@H](CC[C@@H]3[C@@H]2CC[C@]2(C)[C@@H](C(=O)Cn4cc(C#N)cn4)CC[C@@H]32)C1 [Compound 1, 1-(2-((3R,5R,8R,9R,10S,13S,14S,17S)-3-hydroxy-13-methyl-3-(methyl-d3)hexadecahydro-1H-cyclopenta[a]phenanthren-17-yl)-2-oxoethyl)-1H-pyrazole-4-carbonitrile] | < 10 nM |
| [2H][C@]1(C(=O)Cn2cc(C#N)cn2)CC[C@H]2[C@@H]3CC[C@@H]4C[C@](C)(O)CC[C@@H]4[C@H]3CC[C@@]21C [Compound A10, 1-(2-((3R,5R,8R,9R,10S,13S,14S,17S)-3-hydroxy-3,13-dimethylhexadecahydro-1H-cyclopenta[a]phenanthren-17-yl-17-d)-2-oxoethyl)-1H-pyrazole-4-carbonitrile] | < 10 nM |
